# Assay results from ChEMBL document CHEMBL3797035 (Bioorg Med Chem, 2016).
# How the values were obtained:
# [1] = target: T1, Beta-2 adrenergic receptor (Homo sapiens, UniProt P07550); test: Displacement of [3H]CGP12177 from human beta2 receptor expressed in CHO cells; assay type: cell-based
# D(2) dopamine receptor [2] = target: T2, D(2) dopamine receptor (Homo sapiens, UniProt P14416); test: Displacement of [3H]spiperone from human D2L receptor expressed in CHO cells; assay type: cell-based
# D(4) dopamine receptor = target: T3, D(4) dopamine receptor (Homo sapiens, UniProt P21917); test: Displacement of [3H]spiperone from human D4.4 receptor expressed in CHO cells; assay type: cell-based
# T3 sequence (P21917 whole entry): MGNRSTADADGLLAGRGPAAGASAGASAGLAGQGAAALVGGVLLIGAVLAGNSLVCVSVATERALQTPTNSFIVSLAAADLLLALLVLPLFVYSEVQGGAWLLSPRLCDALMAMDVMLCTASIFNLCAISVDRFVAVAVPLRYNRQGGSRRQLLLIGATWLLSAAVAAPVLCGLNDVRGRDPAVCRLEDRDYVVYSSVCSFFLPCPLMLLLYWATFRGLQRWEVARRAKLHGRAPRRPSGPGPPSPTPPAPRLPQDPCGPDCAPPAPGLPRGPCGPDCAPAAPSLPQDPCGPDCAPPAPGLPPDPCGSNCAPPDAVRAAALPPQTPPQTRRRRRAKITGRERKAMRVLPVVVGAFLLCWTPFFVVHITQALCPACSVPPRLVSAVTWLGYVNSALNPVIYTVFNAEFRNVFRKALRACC
# D(2) dopamine receptor [3] = target: T2, D(2) dopamine receptor; test: Displacement of [3H]spiperone from human D2S receptor expressed in CHO cells; assay type: cell-based
# [4] = target: Beta-1 adrenergic receptor (Mus musculus, UniProt P34971); test: Displacement of [3H]CGP12177 from mouse beta1 receptor expressed in HEK293 cells; assay type: cell-based
# [5] = Displacement of [3H]RX821002 from alpha-2 receptor in porcine cortical membranes; assay type: cell membranes, Sus scrofa
# D(1A) dopamine receptor = D(1A) dopamine receptor (Homo sapiens, UniProt P21728); test: Displacement of [3H]SCH23390 from human D1 receptor expressed in HEK293 cells; assay type: cell-based
# D(2) dopamine receptor [6] = target: T2, D(2) dopamine receptor; test: Agonist activity at ARMS2-PK-tagged D2S receptor (unknown origin) transfected in HEK293 cells after 5 hrs by beta-arrestin assay; assay type: cell-based
# D(3) dopamine receptor = D(3) dopamine receptor (Homo sapiens, UniProt P35462); test: Displacement of [3H]spiperone from human D3 receptor expressed in CHO cells; assay type: cell-based
# [7] = Displacement of [3H]prazosine from alpha-1 receptor in porcine cortical membranes; assay type: cell membranes, Sus scrofa
# D(2) dopamine receptor [8] = target: T2, D(2) dopamine receptor; test: Agonist activity at human D2S receptor expressed in HEK293 cells cotransfected with Gqi5 protein assessed as [3H]IP3 accumulation after 120 mins by scintillation counting assay in presence of myo-[3H]-inositol; assay type: functional, cell-based
# [9] = target: T1, Beta-2 adrenergic receptor; test: Agonist activity at human beta2 receptor expressed in HEK293 cells cotransfected with Gqs5 protein assessed as [3H]IP3 accumulation after 120 mins by scintillation counting assay in presence of myo-[3H]-inositol; assay type: functional, cell-based
# [10] = target: T1, Beta-2 adrenergic receptor; test: Agonist activity at PK-tagged beta2 receptor (unknown origin) transfected in HEK293 cells after 90 mins by beta-arrestin assay; assay type: cell-based
# Homo sapiens = species: Homo sapiens; test: Selectivity index, ratio of Ki for human D2S receptor to Ki for human beta2 receptor
# T1 sequence (P07550 whole entry): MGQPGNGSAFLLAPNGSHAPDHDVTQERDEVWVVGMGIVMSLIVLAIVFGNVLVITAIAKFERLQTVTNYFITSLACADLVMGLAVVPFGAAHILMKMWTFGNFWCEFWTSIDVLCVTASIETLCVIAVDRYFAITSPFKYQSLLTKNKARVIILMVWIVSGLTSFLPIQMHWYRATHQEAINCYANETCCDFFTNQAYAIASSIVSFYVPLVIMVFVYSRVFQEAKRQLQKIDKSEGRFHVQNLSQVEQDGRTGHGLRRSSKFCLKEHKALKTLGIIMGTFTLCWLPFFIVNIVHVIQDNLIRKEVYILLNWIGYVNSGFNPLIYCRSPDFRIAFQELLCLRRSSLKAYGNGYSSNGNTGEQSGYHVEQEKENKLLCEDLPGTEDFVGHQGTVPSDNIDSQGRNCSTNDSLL
# T2 sequence (P14416 whole entry): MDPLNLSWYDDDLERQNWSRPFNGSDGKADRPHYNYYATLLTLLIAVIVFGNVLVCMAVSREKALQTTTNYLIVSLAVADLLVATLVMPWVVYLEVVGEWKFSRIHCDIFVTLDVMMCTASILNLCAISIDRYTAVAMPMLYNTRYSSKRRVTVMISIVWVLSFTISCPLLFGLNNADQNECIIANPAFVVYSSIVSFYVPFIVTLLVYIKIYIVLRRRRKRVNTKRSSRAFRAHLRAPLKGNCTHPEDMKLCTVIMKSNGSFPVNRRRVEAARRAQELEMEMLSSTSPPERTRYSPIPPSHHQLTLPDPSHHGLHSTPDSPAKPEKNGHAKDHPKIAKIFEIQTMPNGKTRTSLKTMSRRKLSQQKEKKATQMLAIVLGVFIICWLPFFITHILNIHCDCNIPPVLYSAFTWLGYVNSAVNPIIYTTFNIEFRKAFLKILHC
# Chain of D(3) dopamine receptor (P35462 whole entry): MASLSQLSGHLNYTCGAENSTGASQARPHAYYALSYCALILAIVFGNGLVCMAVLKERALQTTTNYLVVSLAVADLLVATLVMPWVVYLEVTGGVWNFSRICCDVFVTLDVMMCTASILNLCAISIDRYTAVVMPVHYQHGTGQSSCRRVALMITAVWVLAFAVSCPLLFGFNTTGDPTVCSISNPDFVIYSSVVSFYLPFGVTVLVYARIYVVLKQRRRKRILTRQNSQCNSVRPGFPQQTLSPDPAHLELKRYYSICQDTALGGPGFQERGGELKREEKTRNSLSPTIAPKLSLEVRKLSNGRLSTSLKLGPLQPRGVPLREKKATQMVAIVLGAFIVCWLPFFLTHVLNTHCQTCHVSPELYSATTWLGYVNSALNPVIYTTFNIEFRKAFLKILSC
# Chain of D(1A) dopamine receptor (P21728 whole entry): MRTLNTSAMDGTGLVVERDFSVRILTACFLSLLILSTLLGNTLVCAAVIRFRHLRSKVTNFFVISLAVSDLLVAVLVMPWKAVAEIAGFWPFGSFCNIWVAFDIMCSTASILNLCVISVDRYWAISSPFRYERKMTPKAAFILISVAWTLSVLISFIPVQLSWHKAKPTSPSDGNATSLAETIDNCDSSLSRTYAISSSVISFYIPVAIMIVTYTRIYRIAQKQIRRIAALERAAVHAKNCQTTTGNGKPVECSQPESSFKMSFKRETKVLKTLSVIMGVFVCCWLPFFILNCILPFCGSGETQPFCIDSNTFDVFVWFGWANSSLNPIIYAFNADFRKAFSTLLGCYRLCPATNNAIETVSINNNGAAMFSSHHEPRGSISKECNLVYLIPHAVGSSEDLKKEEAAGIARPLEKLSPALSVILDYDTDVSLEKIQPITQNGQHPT
# Chain of Beta-1 adrenergic receptor (P34971 whole entry): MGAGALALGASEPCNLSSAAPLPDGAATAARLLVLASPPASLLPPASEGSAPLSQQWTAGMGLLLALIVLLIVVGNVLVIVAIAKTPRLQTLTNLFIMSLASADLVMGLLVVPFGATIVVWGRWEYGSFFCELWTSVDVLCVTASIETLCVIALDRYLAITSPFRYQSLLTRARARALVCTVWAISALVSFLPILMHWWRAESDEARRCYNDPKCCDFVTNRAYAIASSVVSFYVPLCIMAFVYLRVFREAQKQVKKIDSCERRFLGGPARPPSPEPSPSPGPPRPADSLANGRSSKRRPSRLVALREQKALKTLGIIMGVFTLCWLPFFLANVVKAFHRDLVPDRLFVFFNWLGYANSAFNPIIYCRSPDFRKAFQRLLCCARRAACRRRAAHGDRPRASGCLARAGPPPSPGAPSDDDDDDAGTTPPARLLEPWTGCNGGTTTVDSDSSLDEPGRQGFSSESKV
Compound,Ki [1] [nM],Ki (D(2) dopamine receptor [2]) [nM],Ki (D(4) dopamine receptor) [nM],Ki (D(2) dopamine receptor [3]) [nM],Ki [4] [nM],Ki [5] [nM],Ki (D(1A) dopamine receptor) [nM],EC50 (D(2) dopamine receptor [6]) [nM],Ki (D(3) dopamine receptor) [nM],Ki [7] [nM],EC50 (D(2) dopamine receptor [8]) [nM],EC50 [9] [nM],EC50 [10] [nM],Ratio Ki (Homo sapiens)
CCCN(CCC)[C@H]1CCc2c(O)cccc2C1,40000,–,–,–,–,–,–,–,–,–,–,–,–,–
COc1cc(CCNCCc2ccc(O)c3c2OCC(=O)N3)ccc1OCCCc1ccccc1,2.8,12,55,17,79,270,960,1100,3.5,120,2.6,–,–,–
COc1cc(CCNCCc2ccc(O)c(O)c2)ccc1OCCCc1ccccc1,53,63,38,120,2300,810,860,2600,12,400,110,47000,–,–
CCCN(CCC)[C@@H]1CCc2ccc(O)cc2C1,86000,–,–,–,–,–,–,–,–,–,–,–,–,–
CCCN[C@H]1CCc2nc(N)sc2C1 [PRAMIPEXOLE],100000,–,–,–,–,–,–,–,–,–,–,–,–,–
COc1cc(CCNC[C@H](O)c2ccc(O)c3[nH]c(=O)ccc23)ccc1OCCCc1ccccc1,0.48,5700,3300,3200,5.8,–,11000,–,1700,1400,–,6.2,22,–
CCCN1CCC[C@@H]2Cc3n[nH]cc3C[C@H]21 [QUINPIROLE],100000,–,–,–,–,–,–,–,–,–,–,–,–,–
COc1cc(CCNC[C@H](O)c2ccc(O)c(O)c2)ccc1OCCCc1ccccc1,18,110,140,67,85,1200,430,–,62,16,200,5100,260,–
COc1cc(CCNCCc2ccc(O)c3[nH]c(=O)ccc23)ccc1OCCCc1ccccc1,6.3,64,900,160,150,13000,2800,240,18,920,17,–,–,–
COc1ccccc1OCCNCCc1ccc(O)c(O)c1,610,85,4.5,48,5000,390,210,–,25,4.7,25,720,–,–
COc1ccccc1OCCNC[C@@H](O)COc1cccc2[nH]c3ccccc3c12 [(R)-Carvedilol],–,–,–,26,–,–,–,–,–,–,–,–,–,–

# Further molecules by falling Ki (D(2) dopamine receptor [3]), results first:
Ki [1] [nM],Ki (D(2) dopamine receptor [2]) [nM],Ki (D(4) dopamine receptor) [nM],Ki (D(2) dopamine receptor [3]) [nM],Ki [4] [nM],Ki [5] [nM],Ki (D(1A) dopamine receptor) [nM],EC50 (D(2) dopamine receptor [6]) [nM],Ki (D(3) dopamine receptor) [nM],Ki [7] [nM],EC50 (D(2) dopamine receptor [8]) [nM],EC50 [9] [nM],EC50 [10] [nM],Ratio Ki (Homo sapiens),Compound
33,–,–,86000,–,–,–,–,–,–,–,–,–,2600,CCC(NC(C)C)C(O)c1ccc(O)c2[nH]c(=O)ccc12 (centres undefined) [PROCATEROL]
–,–,–,32000,–,–,–,–,–,–,–,–,–,–,OCc1cc(C(O)CNCCCCCCOCCCCc2ccccc2)ccc1O (centres undefined) [SALMETEROL]
–,48000,2900,12000,–,5700,> 50000,–,4700,78000,–,–,–,–,CC(C)NCC(O)c1ccc(O)c(O)c1 (centres undefined) [ISOPROTERENOL]
23,2900,9200,2300,300,–,6800,–,790,1800,–,840,510,–,COc1cc(CCNC[C@@H](O)c2ccc(O)c3[nH]c(=O)ccc23)ccc1OCCCc1ccccc1
47,1900,1000,1700,530,2500,2900,–,660,–,–,2600,650,–,COc1cc(CCNC[C@@H](O)c2ccc(O)c(O)c2)ccc1OCCCc1ccccc1
–,–,–,1300,–,–,–,–,–,–,–,–,–,–,NC[C@H](O)c1ccc(O)c(O)c1 [NOREPINEPHRINE]
–,–,–,910,–,–,–,–,–,–,–,–,–,–,CNC[C@H](O)c1ccc(O)c(O)c1 [EPINEPHRINE]
97,640,300,430,160,420,890,–,2200,50,170,120,210,–,COc1ccccc1OCCNC[C@H](O)c1ccc(O)c(O)c1
850,350,240,200,1500,760,430,–,610,19,–,1400,2200,–,COc1ccccc1OCCNC[C@@H](O)c1ccc(O)c(O)c1
13,310,5400,96,180,2200,2800,8800,400,1100,7.3,1000,580,–,COc1cc(CCNC[C@@H](O)c2ccc(O)c3c2OCC(=O)N3)ccc1OCCCc1ccccc1
0.25,130,1400,65,5.1,4700,4500,13000,690,1900,98,7,13,–,COc1cc(CCNC[C@H](O)c2ccc(O)c3c2OCC(=O)N3)ccc1OCCCc1ccccc1
